Source: patent US7521232B2, “Emissive species for clinical imaging” (ICx Nomadics, Inc., priority 2006, dated 2009)

Experiment: Solubility of isolated product in solvents
Type: physicochemical

| Solubility in hexanes (hexanes) | Solubility in water (water) | Solubility in DMF (DMF) | Solubility in acetone (acetone) | Compound |
| --- | --- | --- | --- | --- |
| Not very soluble | Not very soluble |  |  | OCCOCCOc1cc(I)c(OCCOCCO)cc1I |
|  |  | soluble | soluble | Cc1ccc(S(=O)(=O)OCCOCCOc2cc(I)c(OCCOCCOS(=O)(=O)c3ccc(C)cc3)cc2I)cc1 |
